This is an account of results in patent EP0742220A2, “Esters of boric acid and their use as perfume” (HAARMANN & REIMER GMBH, priority 1995, dated 1996).

The test system of one test is Pseudomonas aeruginosa. The test can be described thus: microtitre plate test on sterile agar, growth inhibition of gram-negative bacteria. Type of test: cell-based. The conditions noted are these: gramnegativen Bakterien (z.B. Pseudomonas aeruginosa); Inkubationszeit 3 Tage, Temperatur 37°C. On the procedure:
(§1) Sowohl gegenüber gramnegativen Bakterien (z.B. Pseudomonas aeruginosa) als auch grampositiven Bakterien (z.B. Staphylococcus aureus) zeigen die beispielhaft genannten Borate eine hervorragende wachstumshemmende Wirkung, was experimentell durch einen sogenannten Mikrotiterplattentest auf sterilem Agar (Inkubationszeit 3 Tage, Temperatur 37°C) dokumentiert werden konnte.

For another test, the system named is Staphylococcus aureus. The experiment in a line: microtitre plate test on sterile agar, growth inhibition of gram-positive bacteria. Type of test: cell-based. The note with it: grampositiven Bakterien (z.B. Staphylococcus aureus); Inkubationszeit 3 Tage, Temperatur 37°C. On the procedure: as §1

SMILES strings stand for the structures.

For the compound `CC/C=C\CCOB(OCC/C=C\CC)OCC/C=C\CC` [tris-(cis)-3-Hexenylborat], the “wachstumshemmende Wirkung” value in the test with Pseudomonas aeruginosa and with Staphylococcus aureus was “antimikrobiellen Eigenschaften” each time.

Regarding `CC(C)=CCC/C(C)=C/COB(OC/C=C(\C)CCC=C(C)C)OC/C=C(\C)CCC=C(C)C` [tris-Geranylborat], the “wachstumshemmende Wirkung” value in the test on Pseudomonas aeruginosa and in the test with Staphylococcus aureus was “antimikrobiellen Eigenschaften” in each case.

Consider `CC(CC=O)CCCC(C)(C)OB(OC(C)(C)CCCC(C)CC=O)OC(C)(C)CCCC(C)CC=O` (centres unmarked) [tris-Hydroxycitronellalborat], for which the “wachstumshemmende Wirkung” value with Pseudomonas aeruginosa and in the test with Staphylococcus aureus was “antimikrobiellen Eigenschaften” in each case.

With `C=CC(C)(CCC=C(C)C)OB(OC(C)(C=C)CCC=C(C)C)OC(C)(C=C)CCC=C(C)C` (centres unmarked) [tris-Linalylborat], the “wachstumshemmende Wirkung” value in the test on Pseudomonas aeruginosa and in the test with Staphylococcus aureus was “antimikrobiellen Eigenschaften” each time.

Regarding `CC(C)=CCC/C(C)=C\COB(OC/C=C(/C)CCC=C(C)C)OC/C=C(/C)CCC=C(C)C` [tris-Nerylborat], the “wachstumshemmende Wirkung” value with Pseudomonas aeruginosa and in the test with Staphylococcus aureus was “antimikrobiellen Eigenschaften” throughout.

`c1ccc(CCOB(OCCc2ccccc2)OCCc2ccccc2)cc1` [tris-Phenylethylborat]: the “wachstumshemmende Wirkung” value with Pseudomonas aeruginosa and with Staphylococcus aureus was “antimikrobiellen Eigenschaften” in each case.

`C=CCCCCCCCCCOB(OCCCCCCCCCC=C)OCCCCCCCCCC=C` [tris-Undecenylborat]: the “wachstumshemmende Wirkung” value in the test on Pseudomonas aeruginosa and in the test on Staphylococcus aureus was “antimikrobiellen Eigenschaften” in each case.
